species: Cavia porcellus; assay: Tested for inhibition of field-stimulation-induced contraction in the isolated guinea pig ileum; type: functional; conditions: read-out: ID50 (the source's name)

With `Cc1ccc2c(c1)-c1cccc3c1[C@@H](C2)N(C)CC3` as the molecule, how does the IC50 read?
The IC50 was 6800 nM.

`Cc1ccc2c(c1)-c1cccc3c1[C@H](C2)N(C)CC3` was tested. Which IC50 did it give?
Its IC50 is 1200 nM.

For `CCCN(CCC)C1CCc2cccc(O)c2C1` (racemic) [8-OH-DPAT], which IC50 is on record?
Its IC50 is 60 nM.

From ChEMBL document CHEMBL1127044, “Preparation and pharmacological evaluation of enantiomers of certain nonoxygenated aporphines: (+)- and (-)-aporphine and (+)- and (-)-10-methylaporphine” (1993)
